Reference: patent US20260060918A1, “HIGH-PERMEABILITY INCLUSION FOR SOOTHING SKIN REDNESS, HEAT, AND PAIN, AND PREPARATION METHOD AND USE THEREOF” (N.O.D TOPIA (GUANGZHOU) BIOTECHNOLOGY CO.,LTD., priority 2023, published 2026)

Tested on: LPS-induced HaCaT cells
Test: Anti-inflammatory and soothing experiment: inflammatory factors secreted by LPS-induced HaCaT cells (ELISA)
Assay type: cell-based
Conditions: inclusion at volume ratio of 0.3% (dexamethasone 50 µg/mL) with 50 µg/ml LPS, 24 h, supernatant, Mean ± SD, n = 3
Protocol: In vitro stimuli can activate toll-like receptors (TLR-2 and TLR-4) on keratinocytes, leading to the activation of MAPK and NF-κB pathways. Then, the keratinocytes produce IL-1, IL-6, IL-8, TNF-α, and human HBD-2 (defensins), which induces inflammation and causes skin discomfort. The anti-inflammatory effects of the inclusions in Examples 1 to 9 and Comparative Examples 1 to 9 were evaluated by using LPS-induced HaCaT cells as an inflammatory cell model in vitro and detecting inflammatory factors IL-la, […], and TNF-α secreted in cell supernatant by an ELISA kit.
The HaCaT cells were inoculated into a 12-well plate with a density of 2.0-3.0×10^5 cells/well, and incubated in an incubator at a temperature of 37±1° C. and a humidity of 90±5%. After the incubation, the culture plate was taken out, and the original culture solution in the well was discarded. In the sample group, 1 mL of test samples with a volume ratio of 0.3% and 50 µg/ml of LPS culture solution were added to each well; in the model group, only 50 µg/mL of LPS culture solution were added; in the positive control group, 1 mL of dexamethasone ([…]) and LPS ([…]) culture solution was added, while in the blank negative control group, 1 mL of culture solution was only added for culturing 24 h. The supernatant was collected by centrifugation and stored at −80° C. Cytokines of IL-la, […], and TNF-α were determined by using the method described in the ELISA kit, and signals were detected at a wavelength of 450 nm. The content of inflammatory factors was shown in Table 6 by the secretion amount (pg) of IL-i1α, IL-1β, and TNF-α contained in each mL of the culture solution, and triplicate wells were set for each test.

**Q.** Which “IL-1α secretion amount in culture solution” value (model group 63.29 ± 0.39) does the source give for C[C@@H]1C[C@H]2[C@@H]3CCC4=CC(=O)C=C[C@]4(C)[C@@]3(F)[C@@H](O)C[C@]2(C)[C@@]1(O)C(=O)CO [Dexamethasone, dexamethasone] here?
**A.** The value was 36.30 ± 0.21 pg/mL.

**Q.** And the “IL-1β secretion amount in culture solution” value (model group 66.29 ± 0.29)?
**A.** Its value is 24.67 ± 0.65 pg/mL.

**Q.** What about the “TNF-α secretion amount in culture solution” value (model group 92.33 ± 2.25) of the same molecule?
**A.** Its value is 77.27 ± 2.96 pg/mL.
